A short description of data set [1]: Single dose pharmacokinetics and oral bioavailability in rats, Table 15. The class given is in vivo, Sprague-Dawley (SD) rats. As to the method: An in vivo model can be used to evaluate the single dose pharmacokinetic properties and absolute oral bioavailability of a test compound. As described more specifically below, a test compound is administered to Sprague-Dawley (SD) rats either intravenously or orally in a crossover study design and the resulting pharmacokinetic properties and oral bioavailability are measured. […] Plasma samples (0.3 ml) were collected from jugular vein cannula at 0.17, 0.33, 0.47, 0.58, 0.68, 0.75, 1, 2, 3, 4, and 6 hrs after the dosing. […] The samples were mixed and centrifuged for 30 min at 3000×g. 150 μL of supernatant was removed and added to 450 μL of water. HPLC-mass spectrometry: An Agilent 1100HPLC pump, HTC PAL autosampler and a Sciex […] mass spectrometer were used for separation and quantification. Compound 62 and its internal standard were detected using +ESI. Compound 5 and its internal standard were detected using -ESI. LC/MS/MS: 1) Column: Chromolith FastGradient RP-18e, 50×2 mm; 2) Mobile phase A: Aqueous Water with 0.1% TFA, Orgainic phase B: Acetonitrile with 0.1% TFA; Flow Rate: 600 μL/min; Injection volume: 10 μL; […] Plasma concentrations were modeled using WinNonlin® (Pharsight Corp, Mountain View, Calif.). In this experiment, three male Sprague Dawley rats were given Compound 5 by intravenous or oral route. At designated time points, bloods were collected and analyzed. […] Plasma samples were collected at designated time points and analyzed for the presence of Compound 5. […] Male rats (non-fasted) were orally administered 50 mg/kg of the prodrug Compound 62.

For data set [2], the target named is KPC-3, lysate of EC1007 (Klebsiella pneumoniae, UniProt Q9F663, H272Y). The data set can be described thus: Inhibition of biapenem hydrolysis by bacterial lysate.
Sequence of KPC-3, lysate of EC1007 (Q9F663 whole entry H272Y, looked up): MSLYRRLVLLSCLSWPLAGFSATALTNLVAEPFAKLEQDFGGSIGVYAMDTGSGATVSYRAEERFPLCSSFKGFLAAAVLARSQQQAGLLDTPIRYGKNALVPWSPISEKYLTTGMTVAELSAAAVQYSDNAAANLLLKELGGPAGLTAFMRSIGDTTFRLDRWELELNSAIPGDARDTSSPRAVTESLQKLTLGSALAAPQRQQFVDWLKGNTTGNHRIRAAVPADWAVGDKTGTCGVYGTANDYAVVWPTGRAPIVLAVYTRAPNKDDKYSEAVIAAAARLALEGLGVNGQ

Like-named read-outs stand apart in the source and are kept apart here.

Broadly, the half-life is the time in which the quantity being followed falls by half. Low readings indicate rapid decline, high ones slow decline. One may read the AUC as the area under the concentration-time curve, a measure of exposure. Broadly, the Cmax is the maximum level reached in the sampled fluid or tissue. Take `O=C(O)C[C@@H]1CC[C@H](NC(=O)Cc2cccs2)B(O)O1` [Compound 5, 2-((3R,6S)-2-hydroxy-3-(2-(thiophen-2-yl)acetamido)-1,2-oxaborinan-6-yl)acetic acid]: the half-life in data set [1] (Sprague-Dawley, rat, plasma, male SD rats, IV, 20 mg/kg) is 1.56 h; in data set [1] (Sprague-Dawley, rat, plasma, male SD rats, PO, 50 mg/kg) it was 1.55 h. Moreover, the AUC in data set [1] (Sprague-Dawley, rat, plasma, male SD rats, PO, 50 mg/kg, read-out: AUC) is 810 ng·h/mL; in data set [1] (male SD rats, IV, 20 mg/kg), 12150 ng·h/mL; in data set [1] (male SD rats, IV, 50 mg/kg), 28190 ng·h/mL. Also, the CL/F in data set [1] (Sprague-Dawley, rat, plasma, male SD rats, PO, 50 mg/kg, read-out: CL/F (converted)) was 1010 mL/min/kg; in data set [1] (male SD rats, IV, 20 mg/kg) it was 27.5 mL/min/kg; in data set [1] (male SD rats, IV, 50 mg/kg), 29.5 mL/min/kg. Further, the Cmax in data set [1] (Sprague-Dawley, rat, plasma, male SD rats, PO, 50 mg/kg, read-out: Cmax) was 290 ng/mL; in data set [1] (male SD rats, IV, 20 mg/kg), 19820 ng/mL; in data set [1] (male SD rats, IV, 50 mg/kg), 45930 ng/mL. For the same compound, the T1/2 in data set [1] (male SD rats, IV, 50 mg/kg) was 4.53 h. Moreover, in data set [1] (rats, 50 mg/kg orally in saline), the oral absorption result is given as “not orally absorbed”. Moreover, the PK linearity result in data set [1] (rats, intravenous 20 or 50 mg/kg) is given as “linear PK”.

The IC50 is the concentration at which inhibition is half-maximal. For the compound `Cl.N[C@H]1CCC(CC(=O)O)OB1O` (stereo partly drawn) [Compound 7, 2-((3R)-3-amino-2-hydroxy-1,2-oxaborinan-6-yl)acetic acid hydrochloride], in data set [2], the IC50 was > 4.77 µM.

(Values after patent publication US11090319B2, “Therapeutic uses of pharmaceutical compositions comprising cyclic boronic acid ester derivatives” (Melinta Subsidiary Corp., priority 2010, dated 2021).)
